Experimental data taken from US20040063681A1, “Methods for using gold (III) complexes as anti-tumor and anti-HIV agents” (priority 2002, published 2004).

Tests used:
[1] = test system: Human Nasopharyngeal Carcinoma (cisplatin resistance, CNE1); experiment: MTT cytotoxicity, CNE1; assay type: cell-based
Description: (§1) Human promyelocytic leukemia (HL-60), human hepatocellular carcinoma (HepG2), Human cervix epitheloid carcinoma cells (HeLa) and human oral epidermoid carcinoma cells (KB-3-1), were obtained from American Type Culture Collection (ATCC) (Rockville, Md.). […] Cell culture flasks and 96 well microtitre plates were from Nalge Nunc hit. Culture medium, other medium constituents and phosphate buffered saline (PBS) were obtained from Gibco BRL (Rockville, Md.). Cell Proliferation Kit I (MTT) was purchased from Roche (Mannheim, Germany).

[2] = test system: Human Cervix Epitheloid Carcinoma (HeLa); experiment: MTT cytotoxicity, HeLa; assay type: cell-based
Description: as §1

[3] = test system: Human Hepatocellular Carcinoma (HepG2); experiment: MTT cytotoxicity, HepG2; assay type: cell-based; conditions: growth inhibition
Description: (§2) Human promyelocytic leukemia (HL-60), human hepatocellular carcinoma (HepG2), Human cervix epitheloid carcinoma cells (HeLa) and human oral epidermoid carcinoma cells (KB-3-1), were obtained from American Type Culture Collection (ATCC) (Rockville, Md.). The multi-drug-resistant variant KB-V1 cell line was obtained by stepwise selections for vinblastine resistance as described by Shen et al., J. Biol. Chem. 261:7762-7770 (1986)], and was generously provided by Dr Michael Gottesman (NIH, Bethesda, Md.). Human nasopharyngeal carcinoma cells (SUNE1 and its cisplatin resistance variant, CNE1) were derived from poorly differentiated NPC in Chinese patients as described by Gu et al., Chin. J. Cancer 2:270-272 (1983), and were generously provided by Dr S. W. Tsao (The University of Hong Kong, Hong Kong, PRC). Cell culture flasks and 96 well microtitre plates were from Nalge Nunc hit. Culture medium, other medium constituents and phosphate buffered saline (PBS) were obtained from Gibco BRL (Rockville, Md.). Cell Proliferation Kit I (MTT) was purchased from Roche (Mannheim, Germany).
(§3) The anti-cancer activities of the gold(III) porphyrin complexes were evaluated toward some established human cancer cell lines: promyelocytic leukemia (HL-60), hepatocellular carcinoma (HepG2), cervix epitheloid carcinoma (HeLa), epidermoid carcinoma (KB-3-1) and its multi-drug resistant variant (KB-V1), nasopharyngeal carcinoma (SUNE1) and its cisplatin-resistant variant (CNE1). The experiments were carried out by following the MTT procedure (see Mosmann et al., J. Immunol. Methods 65:55-63 (1983). The IC50 values of the gold(III) porphyrin complexes together with that of cisplatin, and KAuCl4 are provided in Table 4a; and the IC50 values of the gold(III) Schiff-base and bis(pyridyl)carboxamide complexes are shown in Table 4b. The cytotoxicity profiles of some selected gold(III) porphyrin complexes toward SUNE1 and its cisplatin-resistant variant CNE1 are also shown in FIG. 7.

[4] = test system: Human Promyelocytic Leukemia (HL-60); experiment: MTT cytotoxicity, HL-60; assay type: cell-based; conditions: growth inhibition
Description: as §2, §3

[5] = Control UV-vis titration with sodium dodecyl sulfate instead of DNA; assay type: binding; conditions: sodium dodecyl sulfate (0-5 μM) instead of DNA
Description: See Neidle, S. DNA structure and recognition; Oxford University Press: Oxford, 1994; 74-79.

[6] = test system: Human Nasopharyngeal Carcinoma (SUNE1); experiment: MTT cytotoxicity, SUNE1; assay type: cell-based
Description: as §1

calf thymus DNA [7] = experiment: UV-vis absorption titration with calf thymus DNA; assay type: binding; conditions: for hypochromicity / intrinsic binding constant (Kb): Tris buffer
Protocol: The calf thymus DNA was purchased from Sigma-Aldrich Chemical Co. and was purified by phenol-chloroform extraction. The DNA was dissolved in buffer (5 mM Tris, 5 mM NaCl, pH 7.2). The concentration (per base pair) of calf thymus DNA was determined spectrophotometrically on the basic of ε260, 13,200 M^−1cm^−1bp.
Absorption Titration. The binding interaction of the gold(III) porphyrins to duplex DNA has been studied by UV-vis spectroscopy.
where [ctDNA] is the concentration of DNA, Δεap═|εA−εB| in which εA=Aobs/[complex], and Δε=|εB−εF|. εB and εF correspond to the extinction coefficient of DNA-bound gold(III) porphyrin and the free gold(III) porphyrins, respectively.
The effect of temperature on the intrinsic binding constants was investigated. Using the van't Hoff equation (2): […]

plasmid DNA (pDR2) = experiment: Restriction endonuclease (ApaI) fragmentation assay; conditions: comparison compounds, lanes F and H of FIG. 8
Description: Binding of the metalloporphyrin onto a duplex DNA such as plasmid DNA (pDR2) is expected to occupy the binding site of the restriction enzyme ApaI, thereby inhibiting the enzymatic DNA digestion. See Ikeda et al., J. Am. Chem. Soc. 104:296-297 (1982).
After ApaI digestion, (lane B), three bands corresponding to 6.6, 4.4 and 2.0 kbp were observed.

calf thymus DNA [8] = experiment: Viscosity evaluation of DNA; conditions: (η/ηo)^1/3 vs binding ratio r
Description: Viscosity evaluation. The binding interaction of the gold(III) porphyrins can be further investigated by examining the change of DNA viscosity upon binding of the metalloporphyrin. If the metalloporphyrin binds to DNA by intercalation, this would cause chain elongation, unwinding and stiffening of the DNA helix as a consequence of untwisting of the base pairs and helical backbone needed to accommodate the intercalator.
For comparison, the viscosity profiles for ethidium bromide (intercalator) and Hoechst 33342 (minor groove binder) are also shown is FIG. 10.

[9] = molecular target: T1, HIV-1 reverse transcriptase (Human immunodeficiency virus type 1 group M subtype B, UniProt P04585); experiment: HIV-1 reverse transcriptase activity, ELISA method; assay type: biochemical; conditions: drug concentration fixed at 6 μM
T1 construct: treatment of HIV-1 RT in Lysis buffer (2 ng, 128.7 μL) with Complex 1j
Protocol: HIV-1 reverse transcriptase activities were measured by an ELISA method (see Eberle et al, J. Virol. Methods, 40:347-356 (1992) performed by incubating the enzyme with digoxigenin-labeled deoxyuridin-5′-triphosphate (dUTP) and the biotin-labeled analogue during reverse transcription starting from the template/primer hybrid poly(A)•oligo(dT)15. After reverse transcription, the newly synthesized DNA was immobilized onto streptavidin-coated ELISA wells, and the incorporation of the dioxigenin-labeled dUTP was assayed by chemiluminescence method. For example, treatment of HIV-1 RT in Lysis buffer (2 ng, 128.7 μL) with Complex 1j (1.3 μL of […] stock solution) dissolved in TBS at 37° C. produced significant RT activity inhibition (˜95%) after 30 min incubation.

[10] = test system: human cancer cell lines (HL-60, HepG2, HeLa, KB-3-1, KB-V1, SUNE1, CNE1); assay type: cell-based; conditions: killing oral epidermoid and nasopharyngeal cancer cells
Description: as §2, with “Cell Proliferation Kit I (MTT) was purchased from Roche (Mannheim, Germany).” left out
The anti-cancer activities of the gold(III) porphyrin complexes were evaluated toward some established human cancer cell lines: promyelocytic leukemia (HL-60), hepatocellular carcinoma (HepG2), cervix epitheloid carcinoma (HeLa), epidermoid carcinoma (KB-3-1) and its multi-drug resistant variant (KB-V1), nasopharyngeal carcinoma (SUNE1) and its cisplatin-resistant variant (CNE1). […]

Structure (SMILES): Fc1c(F)c(F)c(-c2c3nc(c(-c4c(F)c(F)c(F)c(F)c4F)c4ccc([n-]4)c(-c4c(F)c(F)c(F)c(F)c4F)c4nc(c(-c5c(F)c(F)c(F)c(F)c5F)c5ccc2[n-]5)C=C4)C=C3)c(F)c1F.[Au+3].[Cl-] [Complex 1g]
- IC50 ratio [cisplatin/gold (III) porphyrin complexes] CNE1 [1]: 28.1
- IC50 ([1]; MTT, growth inhibition, cisplatin resistant): 1.45 µM
- IC50 ratio [cisplatin/gold (III) porphyrin complexes] HeLa [2]: 3.52
- IC50 ([2]; MTT, growth inhibition): 3.18 µM
- IC50 [3]: 2.31 µM
- IC50 [4]: 1.45 µM
- bathochromic shift [5]: 6 nm
- hypochromicity of the Soret band [5]: 48%
- IC50 ratio [cisplatin/gold (III) porphyrin complexes] SUNE1 [6]: 5.97
- IC50 ([6]; MTT, growth inhibition): 2.11 µM
- hypochromicity (calf thymus DNA [7]; 291.8 K): 18.2%
- intrinsic binding constant (Kb) (calf thymus DNA [7]; 291.8 K): 0.73 × 10^6 dm^3mol^−1
- hypochromicity (calf thymus DNA [7]; 297.6 K): 18.0%
- intrinsic binding constant (Kb) (calf thymus DNA [7]; 297.6 K): 0.58 × 10^6 dm^3mol^−1
- hypochromicity (calf thymus DNA [7]; 301.4 K): 16.5%
- intrinsic binding constant (Kb) (calf thymus DNA [7]; 301.4 K): 0.47 × 10^6 dm^3mol^−1
- hypochromicity (calf thymus DNA [7]; 306.1 K): 10.1%
- intrinsic binding constant (Kb) (calf thymus DNA [7]; 306.1 K): 0.42 × 10^6 dm^3mol^−1
- hypochromicity (calf thymus DNA [7]; 311.7 K): 8.7%
- intrinsic binding constant (Kb) (calf thymus DNA [7]; 311.7 K): 0.34 × 10^6 dm^3mol^−1
- ΔH° (calf thymus DNA [7]; binding to calf thymus DNA, van't Hoff analysis): −7.0 ± 0.4 kcalmol^−1
- ΔG° (298 K) (calf thymus DNA [7]; binding to calf thymus DNA, van't Hoff analysis, 298 K): −7.8 ± 0.5

Structure (SMILES): CCOc1ccc(-c2nc3ccc(-c4nc5ccc(N6CCN(C)CC6)cc5[nH]4)cc3[nH]2)cc1 [Hoechst 33342, reference compound]
- effect on ApaI digestion of pDR2 (plasmid DNA (pDR2)): complete inhibition of the DNA digestion
- change in viscosity of the DNA (calf thymus DNA [8]): no appreciable change in viscosity of the DNA

Structure (SMILES): [Au+3].[Cl-].[Cl-].[Cl-].[Cl-].[K+] [KAu^IIICl4, reference compound]
- HIV-1 RT inhibition [9]: 48%
- times less potent than Complex 1a [10]: about 40 times
